29 compounds from patent publication US20190284168A1, “PYRAZOLE DERIVATIES AS SGC STIMULATORS” (IRONWOOD PHARMACEUTICALS, INC., priority 2014, published 2019) can be followed below.

As a reminder, the EC50 is the concentration needed to bring the measured effect to its halfway point.

In the test the target is T1, soluble guanylate cyclase (sGC) (Homo sapiens, UniProt Q02108+Q02153).
T1 construct: endogenously expressing soluble guanylate cyclase (sGC); endogenous in cells; host or cells: HEK293
T1 sequence (Q02153 1-619): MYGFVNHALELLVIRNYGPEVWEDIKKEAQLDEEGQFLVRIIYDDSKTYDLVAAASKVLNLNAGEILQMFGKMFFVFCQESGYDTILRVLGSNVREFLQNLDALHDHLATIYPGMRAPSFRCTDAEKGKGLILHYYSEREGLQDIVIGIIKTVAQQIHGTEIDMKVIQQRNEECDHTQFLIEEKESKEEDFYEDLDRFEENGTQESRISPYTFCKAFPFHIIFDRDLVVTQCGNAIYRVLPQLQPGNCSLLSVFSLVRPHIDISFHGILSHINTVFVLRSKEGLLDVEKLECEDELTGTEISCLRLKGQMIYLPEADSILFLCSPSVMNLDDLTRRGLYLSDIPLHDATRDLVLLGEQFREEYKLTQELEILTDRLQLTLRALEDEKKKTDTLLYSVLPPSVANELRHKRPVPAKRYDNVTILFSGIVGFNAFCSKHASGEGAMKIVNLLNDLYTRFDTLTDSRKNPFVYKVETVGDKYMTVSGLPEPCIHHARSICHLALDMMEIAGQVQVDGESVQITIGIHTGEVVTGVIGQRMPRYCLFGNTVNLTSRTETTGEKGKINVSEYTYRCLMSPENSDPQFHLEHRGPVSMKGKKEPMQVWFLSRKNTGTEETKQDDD
T1 sequence (Q02108 1-690): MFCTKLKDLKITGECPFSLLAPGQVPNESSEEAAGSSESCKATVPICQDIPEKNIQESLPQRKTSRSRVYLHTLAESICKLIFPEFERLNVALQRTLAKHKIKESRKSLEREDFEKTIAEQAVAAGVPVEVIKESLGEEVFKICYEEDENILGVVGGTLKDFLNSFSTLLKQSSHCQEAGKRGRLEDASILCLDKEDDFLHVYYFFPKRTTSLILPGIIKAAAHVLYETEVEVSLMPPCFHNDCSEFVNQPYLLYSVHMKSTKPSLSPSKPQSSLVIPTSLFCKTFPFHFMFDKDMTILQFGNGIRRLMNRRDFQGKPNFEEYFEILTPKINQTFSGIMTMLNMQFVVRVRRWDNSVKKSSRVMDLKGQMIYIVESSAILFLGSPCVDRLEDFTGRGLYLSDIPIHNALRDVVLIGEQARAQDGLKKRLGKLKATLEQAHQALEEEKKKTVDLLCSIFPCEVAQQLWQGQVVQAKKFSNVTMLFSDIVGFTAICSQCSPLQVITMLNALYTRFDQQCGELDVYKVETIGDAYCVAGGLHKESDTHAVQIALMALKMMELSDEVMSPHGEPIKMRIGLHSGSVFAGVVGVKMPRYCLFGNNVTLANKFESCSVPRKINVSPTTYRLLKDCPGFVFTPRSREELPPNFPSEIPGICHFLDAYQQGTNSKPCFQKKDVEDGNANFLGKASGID
Description: sGC-HEK-cGMP assay with LC/MS detection. The format is cell-based. The conditions noted are these: HEK293 whole cells, LC/MS detection of cGMP, 10 μM DETA-NONOate; 50% of high control response (30 μM Compound Y); read-out: Absolute EC50 (nM)- binned (~).

The structures appear in SMILES notation.

As to `CC(=O)c1cc(-c2ncc(F)c(N3CCNC(=O)C3)n2)nn1Cc1ccccc1F` [Compound 77], the EC50 is over 1000 nM. Turning to `CC(=O)c1cc(-c2ncc(F)c(N3CCCC(F)(F)C3)n2)nn1Cc1ccccc1F` [Compound 79], the EC50 was 100 to 1000 nM. Under `COC1CCN(c2nc(-c3cc(C(C)=O)n(Cc4ccccc4F)n3)ncc2F)C1` (centres unmarked) [Compound 80] stands 100 to 1000 nM; under `CN(C)c1cc(-c2ncc(F)c(O)n2)nn1Cc1ccccc1F` [Compound 81], over 1000 nM; under `CC(=O)c1cc(-c2ncc(F)c(N)n2)nn1Cc1ccccc1F` [Compound 84], over 1000 nM. The same measure for `CC(=O)c1cc(-c2ncc(F)c(NCC(O)(C(N)=O)C(F)(F)F)n2)nn1Cc1ccccc1F` (centres unmarked) [Compound 85]: 100 to 1000 nM. On to `CC(=O)c1cc(-c2ncc(F)c(NCCCCC(=O)O)n2)nn1Cc1ccccc1F` [Compound 87], for which the EC50 was 100 to 1000 nM. The same measure for `CC(=O)c1cc(-c2ncc(F)c(N3CCC(S(N)(=O)=O)CC3)n2)nn1Cc1ccccc1F` [Compound 88]: 100 to 1000 nM; for `CC(=O)c1cc(-c2ncc(F)c(N3CC(C)C(C(=O)O)C3)n2)nn1Cc1ccccc1F` (centres unmarked) [Compound 89]: 100 to 1000 nM. The same measure for `CC(=O)c1cc(-c2ncc(F)c(N(C)CC3(C(=O)O)CCCC3)n2)nn1Cc1ccccc1F` [Compound 90]: under 100 nM; for `CC(=O)c1cc(-c2ncc(F)c(N(C)C)n2)nn1Cc1ccccc1F` [Compound 91]: 100 to 1000 nM; for `CC(=O)c1cc(-c2ncc(F)c(N3CCCC3)n2)nn1Cc1ccccc1F` [Compound 92]: over 1000 nM. Regarding `CC(=O)c1cc(-c2ncc(F)c(N3CCCCC3)n2)nn1Cc1ccccc1F` [Compound 93], the EC50 lay in the range of 100 to 1000 nM. Under `CC(=O)c1cc(-c2ncc(F)c(N3CCNCC3)n2)nn1Cc1ccccc1F` [Compound 94] stands over 1000 nM; under `CC(=O)c1cc(-c2ncc(F)c(N3CCOCC3)n2)nn1Cc1ccccc1F` [Compound 95], 100 to 1000 nM. Regarding `CC(=O)c1cc(-c2ncc(F)c(NS(=O)(=O)CCC(F)(F)F)n2)nn1Cc1ccccc1F` [Compound 96], the EC50 was in the range of 100 to 1000 nM. In the case of `CCCS(=O)(=O)Nc1nc(-c2cc(C(C)=O)n(Cc3ccccc3F)n2)ncc1F` [Compound 97], the EC50 was over 1000 nM.

For the compound `CC(=O)c1cc(-c2ncc(F)c(NS(=O)(=O)c3ccccc3)n2)nn1Cc1ccccc1F` [Compound 98], the EC50 is over 1000 nM. As for `CC(=O)c1cc(-c2ncc(F)c(N(C)CC3(C(N)=O)CC3)n2)nn1Cc1ccccc1F` [Compound 99], the EC50 was in the range of 100 to 1000 nM. Under `NC(=O)C(O)(CNc1nc(-c2cc(-c3ncco3)n(Cc3ccccc3F)n2)ncc1F)C(F)(F)F` (centres unmarked) [Compound 102] stands 100 to 1000 nM; under `OC(CNc1nc(-c2cc(-c3ncco3)n(Cc3ccccc3F)n2)ncc1F)(C(F)(F)F)C(F)(F)F` [Compound 103], 100 to 1000 nM; under `COCc1cc(-c2ncc(F)c(O)n2)nn1Cc1ccccc1F` [Compound 105], over 30000 nM. The same measure for `C[C@@](N)(CNc1nc(-c2cc(-c3ccon3)n(Cc3ccccc3F)n2)ncc1F)C(F)(F)F` [Compound 106]: under 100 nM; for `C[C@@](CNc1nc(-c2cc(-c3ccon3)n(Cc3ccccc3F)n2)ncc1F)(N[C@@H](CO)c1ccccc1)C(F)(F)F` [Compound 107]: under 100 nM; for `CC(=O)c1cc(-c2ncc(F)c(N3CCC4(CCOCC4)C3)n2)nn1Cc1ccccc1F` [Compound 112]: 100 to 1000 nM. For the compound `CC(=O)c1cc(-c2ncc(F)c(N3CCC4(CC3)COC4)n2)nn1Cc1ccccc1F` [Compound 113], the EC50 was in the range of 100 to 1000 nM. The same measure for `CC(=O)c1cc(-c2ncc(F)c(N3CC(F)(F)C3)n2)nn1Cc1ccccc1F` [Compound 114]: over 1000 nM; for `CC(=O)c1cc(-c2ncc(F)c(N3CCS(=O)(=O)C(C)(C)C3)n2)nn1Cc1ccccc1F` [Compound 115]: over 1000 nM; for `CC(=O)c1cc(-c2ncc(F)c(N3CC[C@H](O)[C@H](O)C3)n2)nn1Cc1ccccc1F` [Compound 116]: 100 to 1000 nM.
